Reference: patent US7767803B2, “Stabilized aptamers to PSMA and their use as prostate cancer therapeutics” (Archemix Corp., priority 2002, dated 2010)
{C6-FAM} = fluorescein (C6-FAM) label; [invdT] = inverted (3'-3') thymidine; m = 2'-O-methyl; r = 2'-OH (RNA); f = 2'-fluoro

Columns and labels:
LNCaP cells = experiment: Cell proliferation assay, chemiluminescent detection of BrdU; format: cell-based; conditions: for effect on cell viability / cell killing (in words): LNCaP cells
Description: Effects on LNCaP cell viability were assessed in a cell proliferation assay based on chemiluminescent detection of BrdU described below (Cell Proliferation ELISA, BrdU (Roche, Indianapolis, Ind.). PC-3 cells were used as a control cell line.
Media from LNCaP (PSMA+) or PC3 (PSMA−) cells growing in 15 cm plates was aspirated off then cells were washed with 10 mL 1×PBS. Cells were trypsinized for 30 sec at 37° C. Following trypsinization, 8 mL 10% FBS media was used to quench trypsin. […] Following spin the media was aspirated off and the cell pellet was re-suspended with 10 mL complete media. The cell density was adjusted to 200,000 cells/mL. 50 μl of cells/well was added to collagen coated black 96-well plates (10,000 cells/well). […] Following overnight incubation 25 μl of media, aptamer or antibody was added to each well with the final volume in the well being 100 μl and incubated at 37° C. in 5% CO2 for designated time length. […] After 2 days 20 μl BrdU labeling reagent (100×) is mixed with 2 mL of complete media. […] After incubation, the media was removed, and the assay was completed following the manufacturer's protocol: 200 μl/well FixDenat solution was added to each well and incubated for 30 min at RT. Following removal of FixDenat solution 100 μl anti-BrdU POD Fab fragment solution (Luminol/4-iodophenol) was added to each well and incubated for 90 min at RT. After incubation anti-BrdU POD solution was removed and plates were washed with 200 μl/well of washing solution three times with 5 min RT incubations. 100 μl of substrate solution was added to each well and cells were incubated for 3 min at RT in the dark. The plates were read using a luminescence program with a 1 sec count on a Packard TopCount Microplate Scintillation and Luminescence Counter.

LNCaP cells (PSMA+) = experiment: LNCaP FACS assay with fluorescein-labeled aptamers; format: cell-based; conditions: FACS analysis
Excerpt: The parent A9 aptamer sequence (SEQ ID NO 168) is predicted by the MFOLD algorithm implemented in the RNAStructure program v. 4.11 to fold into a partially mismatched hairpin that encompasses almost the entire molecule. A series of truncated constructs were designed, in which self-pairing nucleotides from the 5′- and 3′-ends were simultaneously removed, chemically synthesized using conventional solid-phase phosphoramidite-based synthesis, and tested. In the design of some of the truncated A9 aptamers, see e.g. ARC591, additional bases were added to the 3′ and 5′ ends of the truncate, where the bases added to the 5′ end were capable of forming Watson-Crick base pairs with those added to the 3′ end thereby increasing the length of stem structure. Truncated aptamers were 5′-labeled with fluorescein and tested for binding in to LNCaP cells (PSMA+) in the FACS assay described below. PC-3 cells (PSMA−) were used as a control cell line. The sequences of the truncated A9 aptamers designed are listed below in Table 6 below.
To accomplish 5′-fluorescein labeling, aptamers were synthesized with a 5′-amine and then modified post-solid phase synthesis. The required aptamer was dissolved to a concentration of ˜10-50 mg/mL in 25 mM phosphate buffer, pH 7.4. The small molecule, NHS ester of fluorescein, was dissolved to a concentration of 10 mg/mL in DMSO. 1.5 Molar equivalents were added to the aptamer and the solution vortexed for ˜15 seconds. The reaction was allowed to proceed in the dark at room temperature for 1 hour and then a 5 μL aliquot was withdrawn, diluted with water and analyzed by HPLC. Additional equivalents of the small molecule were added until the reaction was complete by HPLC. Excess small molecules were removed by gel filtration.
To prepare aptamers for the FACS assay, PSMA aptamers were serially diluted (0-1 uM) in FACS buffer (1×DPBS w/Ca^++/Mg^++ (Gibco, Carlsbad, Calif.) supplemented with 10 mg/mL salmon sperm DNA & 0.2% Na Azide), in a V-bottom 96 well plate, at the concentrations to be tested. LNCaP and PC-3 cells (ATCC, Manassas, Va.) were harvested with trypsin, and 200,000 cells/well were counted, washed once with 1×DPBS (with Ca^++ and Mg^++) and resuspended in 200 μl of FACS Buffer. The 200 μl of cells in FACS buffer were added to individual wells of a new 96 well plate, pelleted by centrifugation (1300 rpm for 5 minutes), and resuspended in 100 μl of the appropriate concentration of diluted aptamer. FACS buffer, c-PSMA antibody (3C6) (Northwest Biotherapeutics, Bothell, Wash., Cat #: 60-5002) and an irrelevant fluorescein isothiocyanate (“FITC”) mouse IgG1 isotype control antibody (BD Pharmingen, San Diego, Calif., Cat#: 554679) were used as controls. The wells of aptamer/cell mixture were incubated at room temperature for 20-30 minutes. […]

Compound | effect on cell viability / cell killing (in words) (LNCaP cells) | competition with fluorescently labeled anti-PSMA antibody for binding to the surface of LNCaP cells (LNCaP cells (PSMA+)) | other results
UAAUACGACUCACUAUAGGGAGAGGAGAGAACGUUCUACUAUGGGUGGCUGGGAGGGGAAGAGGGAGUAGGUCGAUCGAUCGAUCAUCGAUG [ARC955] | no intrinsic effect on cell viability at any concentration |  | 
O=c1c(-c2ccc(O)cc2)coc2cc(O)cc(O)c12 [Genistein, reference compound] |  |  | cytotoxicity at 25 μM (LNCaP cells; positive control, 25 μM dose): partial inhibition; cytotoxicity at 150 μM (LNCaP cells; positive control, 150 μM): complete cell killing
mCmGmGmACmGAAAAmAmGmAmCfCfUGAfCfUfUfCfUAfUAfCfUAAmGmUmCmUAfCmGfUmUmCmCmG-3T [ARC942] | no intrinsic effect on cell viability at any concentration |  | 
c6 fam-mCmGmGmAfCfCmGAAAAmAmGmAmCfCfUGAfCfUfUfCfUAfUAfCfUAAmGmUmCmUAfCmGfUmUmCmCmG-3T (CGGACCGAAAAAGACCUGACUUCUAUACUAAGUCUACGUUCCG; sugars from the 5' end mmmmffmrrrrmmmmffrrfffffrfrffrrmmmmrfmfmmmm, [invdT] at 3' end, 5' {C6-FAM}, backbone not given here) [ARC711, fluorescently labeled A9 minimer] |  | effectively competes | 
C6 FAM-GGAGGACCGAAAAAGACCUGACUUCUAUACUAAGUCUACGUUCCUCC-3T (GGAGGACCGAAAAAGACCUGACUUCUAUACUAAGUCUACGUUCCUCCT; 5' FAM label and 3' inverted dT, sugar chemistry not clearly assigned, further chemistry not given here) [ARC710, fluorescently labeled A9 minimer] |  | effectively competes | 
